Values after ≈ are worked out from the molar mass of the structure shown. Where two headings read alike, the source gives them in different places. Peptide text beside a SMILES is read from it. * marks the point of attachment. Orn(α-tetramethylguanidino) = CN(C)C(=N[C@@H](CCCN)C(=O)*)N(C)C

In one data set the test system is E. coli BW25113. Format: cell-based, Escherichia coli. The settings on record: for MIC, BW: BW25113, 2 h. Here is the method:
(§1) The minimal inhibitory concentrations (MIC) were determined at least twice in triplicate using a liquid broth microdilution assay in sterile 96-well plates and a total volume of 100 μL per well. Aqueous peptide solutions were serially 2-fold diluted in 25% MHBII or 33% TSB medium in a volume of 50 µL. An overnight culture was diluted in 25% MHBII or 33% TSB medium to 1.5 × 10^7 CFU/mL, and an aliquot of 50 μL was added to each well. The final cell count in each well was 7.5 × 10^6 CFU/mL. […] The turbidity of each well was measured at a wavelength of 600 nm. The MIC was defined as the lowest peptide concentration where the turbidity was identical to medium only.

The subject of data set [1] is E. coli BL21 (DE3) RIL ribosome extract. The conditions noted are these: values published for E. coli BL21 (DE3) RIL ribosome extract; read-out: Kd (printed in column Ros); cited from earlier work. The text has this:
Table 2 Antibacterial activities, dissociation (Kd), and inhibition constants (Ki) of ribosome binding obtained for all PrAMPs included in the current study for E. coli strains BW25113 (BW) and Rosetta DE3 pLysS (Ros). | column: Kd [µmol/L] ** / Ros

Data set [2] shares this test system. The conditions noted are these: values published for E. coli BL21 (DE3) RIL ribosome extract; read-out: Ki, cf-Api137; cited from earlier work.
Data set [3] shares this test system. The settings on record: values published for E. coli BL21 (DE3) RIL ribosome extract; read-out: Ki, cf-Onc112; cited from earlier work. From the text:
Table 2 Antibacterial activities, dissociation (Kd), and inhibition constants (Ki) of ribosome binding obtained for all PrAMPs included in the current study for E. coli strains BW25113 (BW) and Rosetta DE3 pLysS (Ros). | column: Ki [µmol/L] *** / cf-Onc112

Another data set has as its system E. coli BL21 (DE3). Format: cell-based, Escherichia coli. The settings on record: BL21, 2 h. Here is the method: as §1
Data set [4] deals with E. coli BL21 (DE3) sbmA::Tn10^Cm + psbmA_A31G/G219T. Format: cell-based, Escherichia coli. On the procedure:
(§2) The minimal inhibitory concentrations (MIC) were determined at least twice in triplicate using a liquid broth microdilution assay in sterile 96-well plates and a total volume of 100 μL per well. Aqueous peptide solutions were serially 2-fold diluted in 25% MHBII or 33% TSB medium in a volume of 50 µL. An overnight culture was diluted in 25% MHBII or 33% TSB medium to 1.5 × 10^7 CFU/mL, and an aliquot of 50 μL was added to each well. The final cell count in each well was 7.5 × 10^6 CFU/mL. The plates were incubated at 37 °C for 20 ± 2 h. The turbidity of each well was measured at a wavelength of 600 nm. The MIC was defined as the lowest peptide concentration where the turbidity was identical to medium only.
(§3) E. coli strain BL21(DE3) was randomly mutagenized by Tn10 insertion using the lambda phage lysate λNK1324 carrying a chloramphenicol resistance and grown on LB agar plates in the presence of chloramphenicol (15 µg/mL) at 30 °C overnight. The resistant colonies were transferred to 25% MHBII agar plates containing Api137 (32 or 64 µg/mL) and incubated again at 37 °C overnight. Genomic DNA was isolated by a Monarch® Genomic DNA purification kit (New England Biolabs, Frankfurt am Main, Germany) from the presumed double-resistant strains, and the sequences flanking the transposon insertion were determined by arbitrary primed PCR using arbitrary primer ARB6 and Tn10 transposon-specific primer IS10-R complementary to the IS10 element of Tn10 transposon. The first round of amplification included six cycles of denaturation (95 °C, 30 s), annealing (30 °C, 30 s), and extension (72 °C, 90 s), followed by 30 cycles of denaturation (95 °C, 30 s), annealing (45°C, 30 s), and extension (72 °C, 2 min), as well as a final extension (72 °C, 6 min). The second round of amplification used arbitrary primer ARB2 and primer IS10-R. The PCR consisted of 30 cycles of denaturation (95 °C, 30 s), annealing (52 °C, 30 s), and extension (72 °C, 2 min), followed by a final extension step (72 °C, 6 min). PCR products were purified with the NucleoSpin® Gel and a PCR cleanup kit (Macherey-Nagel, Düren, Germany) and sequenced using primer IS10-R (Eurofins MWG Operon, Ebersberg, Germany), and the corresponding protein was identified in a sequence database (UniProt and NCBI, 2021).

The test system of data set [5] is E. coli BL21 (DE3) sbmA::Tn10^Cm + psbmA. Format: cell-based, Escherichia coli. On the procedure: as §2, §3
The subject of data set [6] is E. coli BW25113 ΔsbmA +psbmA. Format: cell-based, Escherichia coli. On the procedure: as §2
The next data set deals with E. coli BW25113 ΔsbmA. Format: cell-based, Escherichia coli. Here is the method:
as §2

The conditions of data set [7]: E. coli Rosetta pLysS lysate, protein ~0.5 g/L; 37 °C; RP-HPLC UV 214 nm.
Experimental: Peptides (7.5 µg) were mixed with lysates of E. coli Rosetta pLysS or E. coli BW25113 (protein concentration ~0.5 g/L) and incubated on an orbital shaker (37 °C, 750 rpm). After 0, 4, 8 and 24 h, aliquots were taken in duplicate or triplicate, and trichloroacetic acid was added to achieve a final concentration of 3% (v/v). Samples were incubated on ice (10 min) and centrifuged (13,000× g, 5 min). The supernatant was neutralized with aqueous sodium hydroxide (1 mol/L) and stored at −20 °C. Samples were separated on an ACQUITY arc system (Waters GmbH, Eschborn, Germany) using a Jupiter C18 column (ID: 2 mm). Elution was achieved using a linear aqueous acetonitrile gradient containing 0.1% (v/v) formic acid. The absorbance was recorded on a 2489 UV/VIS detector at 214 nm (Waters GmbH), and mass spectra were acquired online with an ion trap mass spectrometer equipped with an electrospray ionization source (ESI-IT-MS, Esquire HCT, Bruker Daltonics, Billerica, MA, USA). Peptide recoveries and the corresponding metabolites were calculated based on the peak areas (UV) of the initial peptide peak area at 0 min.
Setting [8] is: 25% MHBII containing IPTG (0.1 mmol/L).
Where [9] appears, read: 33% TSB containing IPTG (0.1 mmol/L).

Regarding `CC[C@H](C)[C@H](NC(=O)[C@H](Cc1ccc(O)cc1)NC(=O)[C@@H](NC(=O)[C@@H]1CCCN1C(=O)[C@H](CCCNC(=N)N)NC(=O)[C@H](CC(N)=O)NC(=O)[C@H](CC(N)=O)NC(=O)[C@H](CCCN)N=C(N(C)C)N(C)C)C(C)C)C(=O)N1CCC[C@H]1C(=O)N[C@@H](CCCNC(=N)N)C(=O)N1CCC[C@H]1C(=O)N[C@@H](CCCNC(=N)N)C(=O)N1CCC[C@H]1C(=O)N1CCC[C@H]1C(=O)N[C@@H](Cc1c[nH]cn1)C(=O)N1CCC[C@H]1C(=O)N[C@@H](CCCNC(=N)N)C(=O)N[C@@H](CC(C)C)C(N)=O` [Api88] ({Orn(α-tetramethylguanidino)}-NNRPVYIPRPRPPHPRL-NH2), the “MIC, BW” value with E. coli BW25113 is reported as 2 µg/mL (≈ 0.873 µM). The “less active against BW25113 than against Rosetta DE3 pLysS (fold, from MIC)” value with E. coli BW25113 (ratio of MIC values, 25% MHBII) is “twofold”. The Kd in data set [1] was 1.22 µM. For the same compound, the values for the inhibitory constant (Ki) in [2] and in data set [3] were 0.18 µM and 0.11 µM, respectively.

Consider `CC[C@H](C)[C@H](NC(=O)[C@H](Cc1ccc(O)cc1)NC(=O)[C@@H](NC(=O)[C@@H]1CCCN1C(=O)[C@H](CCCNC(=N)N)NC(=O)[C@H](CC(N)=O)NC(=O)[C@H](CC(N)=O)NC(=O)[C@H](CCCN)N=C(N(C)C)N(C)C)C(C)C)C(=O)N1CCC[C@H]1C(=O)N[C@@H](CCCNC(=N)N)C(=O)N1CCC[C@H]1C(=O)N[C@@H](CCCNC(=N)N)C(=O)N1CCC[C@H]1C(=O)N1CCC[C@H]1C(=O)N[C@@H](Cc1c[nH]cn1)C(=O)N1CCC[C@H]1C(=O)N[C@@H](CCCNC(=N)N)C(=O)N[C@@H](CC(C)C)C(=O)O` [Api137] ({Orn(α-tetramethylguanidino)}-NNRPVYIPRPRPPHPRL-OH), for which the “MIC, 25% MHBII” value in the data set with E. coli BL21 (DE3) came to 4 µg/mL (≈ 1.75 µM); in data set [4] (setting [8]), 4 µg/mL (≈ 1.75 µM); in data set [5] (setting [8]), 8 µg/mL (≈ 3.49 µM); in [6] (setting [8]), 4 µg/mL (≈ 1.75 µM); against E. coli BW25113 ΔsbmA (setting [8]), 8 µg/mL (≈ 3.49 µM). The “MIC, 33% TSB” value in the data set with E. coli BL21 (DE3) turned out to be 2 µg/mL (≈ 0.873 µM); in data set [4] (setting [9]), 8 µg/mL (≈ 3.49 µM); in data set [5] (setting [9]) it was 8 µg/mL (≈ 3.49 µM); in data set [6] (setting [9]) it was 8 µg/mL (≈ 3.49 µM); with E. coli BW25113 ΔsbmA (setting [9]), 64 µg/mL (≈ 27.9 µM). Besides, the “MIC, BW” value with E. coli BW25113 amounted to 2 µg/mL (≈ 0.873 µM).

As to `CC[C@H](C)[C@H](NC(=O)[C@@H]1CCCN1C(=O)[C@H](CCCNC(=N)N)NC(=O)[C@H](CC(N)=O)NC(=O)[C@H](CC(N)=O)NC(=O)CN)C(=O)N[C@@H](Cc1ccc(O)cc1)C(=O)N[C@H](C(=O)N1CCC[C@H]1C(=O)N[C@@H](CCCNC(=N)N)C(=O)N1CCC[C@H]1C(=O)N[C@@H](CCCNC(=N)N)C(=O)N1CCC[C@H]1C(=O)N1CCC[C@H]1C(=O)N[C@@H](Cc1c[nH]cn1)C(=O)N1CCC[C@H]1C(=O)N[C@@H](CCCNC(=N)N)C(=O)N1CCC[C@H]1C(=O)N[C@H](C(=O)N[C@@H](CCCNC(=N)N)C(=O)N[C@H](C(=O)O)C(C)C)[C@@H](C)CC)[C@@H](C)CC` [Api805] (H-GNNRPIYIPRPRPPHPRPIRV-OH; N-terminus assumed), in the data set with E. coli BL21 (DE3), the “MIC in the parent E. coli BL21 strain” value is 2 to 4 µg/mL; the “MIC, 25% MHBII” value is reported as 4 µg/mL (≈ 1.6 µM); the “MIC, 33% TSB” value turned out to be 2 µg/mL (≈ 0.799 µM). Also, the “half-life time in lysate” value in data set [7] is > 24 h.

The term Kd denotes the concentration at which binding is half-saturated. For orientation: Ki means a dissociation constant, usually derived from enzyme kinetics or from competition with a known ligand.

The values above are taken from article PMC9025336 (Antibiotics, 2022).
